Assay results: patent publication US11325899B2, “Benzofurane and benzothiophene derivatives as PGE2 receptor modulators” (IDORSIA PHARMACEUTICALS LTD, priority 2017, dated 2022)

Each compound was assayed against T1, EP2 receptor (Homo sapiens, UniProt P43116) (assay: hEP2 cAMP assay (SF295 glioblastoma cells, HTRF cAMP, PGE2 stimulation)). Details: antagonistic activity.
T1 construct: SF295 glioblastoma cells express high endogenous EP2 and no EP4; host or cells: SF295 glioblastoma cells
Assay type: cell-based
How it was run: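 SF295 glioblastoma cells with endogenous EP2 and no EP4, in HBSS/HEPES/BSA with 2 mM IBMX, pre-incubated 45 min at room temperature with compound, then stimulated 30 min with 75 nM PGE2 (EC80). cAMP measured by HTRF; IC50 fitted from duplicate % cAMP versus DMSO control.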

T1 sequence (P43116 whole entry): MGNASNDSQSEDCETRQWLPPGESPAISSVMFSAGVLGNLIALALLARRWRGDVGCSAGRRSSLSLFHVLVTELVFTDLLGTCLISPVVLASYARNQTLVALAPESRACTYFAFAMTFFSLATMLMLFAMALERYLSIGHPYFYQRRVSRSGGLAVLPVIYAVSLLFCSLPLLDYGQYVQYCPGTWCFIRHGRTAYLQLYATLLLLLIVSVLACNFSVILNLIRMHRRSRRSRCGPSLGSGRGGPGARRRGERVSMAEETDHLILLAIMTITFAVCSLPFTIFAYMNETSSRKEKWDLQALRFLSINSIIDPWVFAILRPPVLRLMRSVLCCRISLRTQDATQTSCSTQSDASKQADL

| Structure (SMILES) | IC50 |
| --- | --- |
| CCOc1cc(-c2cc(NCCc3c(Cl)sc4ccccc34)ncn2)ccc1C(=O)O [Example 75, 4-{6-[2-(2-chloro-benzo[b]thiophen-3-yl)-ethylamino]-pyrimidin-4-yl}-2-ethoxy-benzoic acid] | 9 nM |
| CCOc1cc(-c2cc(NCCc3c(C)oc4c(OC)cc(F)c(F)c34)ncn2)sc1C(=O)O [Example 31, 5-{6-[2-(4,5-Difluoro-7-methoxy-2-methyl-benzofuran-3-yl)-ethylamino]-pyrimidin-4-yl}-3-ethoxy-thiophene-2-carboxylic acid] | 10 nM |
| CCOc1cc(-c2cc(NCCc3c(CC)oc4c(C)cc(F)cc34)ncn2)sc1C(=O)O [Example 39, 3-Ethoxy-5-{6-[2-(2-ethyl-5-fluoro-7-methyl-benzofuran-3-yl)-ethylamino]-pyrimidin-4-yl}-thiophene-2-carboxylic acid] | 28 nM |
| CCSc1cc(-c2cc(NCCc3c(C)oc4ccccc34)ncn2)ccc1C(=O)O [Example 44, 2-Ethylsulfanyl-4-{6-[2-(2-methyl-benzofuran-3-yl)-ethylamino]-pyrimidin-4-yl}-benzoic acid] | 4 nM |
| CCOc1cc(-c2cc(NCCc3c(C)sc4c(OC)ccc(F)c34)ncn2)sc1C(=O)O [Example 28, 3-Ethoxy-5-{6-[2-(4-fluoro-7-methoxy-2-methyl-benzo[b]thiophen-3-yl)-ethylamino]-pyrimidin-4-yl}-thiophene-2-carboxylic acid] | 11 nM |
| COc1cc(-c2cc(NCCc3c(C)sc4c(OC)ccc(Cl)c34)ncn2)ccc1C(=O)O [Example 40, 4-{6-[2-(4-Chloro-7-methoxy-2-methyl-benzo[b]thiophen-3-yl)-ethylamino]-pyrimidin-4-yl}-2-methoxy-benzoic acid] | 94 nM |
| CCOc1cc(-c2cc(NCCc3c(C)oc4c(Cl)cccc34)ncn2)ccc1C(=O)O [Example 68, 4-{6-[2-(7-Chloro-2-methyl-benzofuran-3-yl)-ethylamino]-pyrimidin-4-yl}-2-ethoxy-benzoic acid] | 39 nM |

The next lines start with the values.

| IC50 | Structure (SMILES) |
| --- | --- |
| 39 nM | Cc1sc2c(C)cccc2c1CCNc1cc(-c2ccc3c(C(=O)O)coc3c2)ncn1 [Example 76, 6-{6-[2-(2,7-Dimethyl-benzo[b]thiophen-3-yl)-ethylamino]-pyrimidin-4-yl}-benzofuran-3-carboxylic acid] |
| 106 nM | Cc1sc2c(C)cc(F)cc2c1CCNc1cc(-c2ccc(-c3nc(=O)[nH]o3)cc2)ncn1 [Example 79, 5-(4-{6-[2-(5-Fluoro-2,7-dimethyl-benzo[b]thiophen-3-yl)-ethylamino]-pyrimidin-4-yl}-phenyl)-[1,2,4]oxadiazol-3(2H)-one [tautomeric form: 5-(4-(6-((2-(5-fluoro-2,7-dimethylbenzo[b]thiophen-3-yl)ethyl)amino)pyrimidin-4-yl)phenyl)-[1,2,4]oxadiazol-3-ol]] |
| 11 nM | CCCSc1cc(-c2cc(NCCc3c(C)sc4ccccc34)ncn2)ccc1C(=O)O [Example 88, 4-{6-[2-(2-Methyl-benzo[b]thiophen-3-yl)-ethylamino]-pyrimidin-4-yl}-2-propylsulfanyl-benzoic acid] |
| 8 nM | CCOc1cc(-c2cc(NCCc3c(C)sc4ccccc34)ncn2)ccc1C(=O)O [Example 72, 2-Ethoxy-4-{6-[2-(2-methyl-benzo[b]thiophen-3-yl)-ethylamino]-pyrimidin-4-yl}-benzoic acid] |
| 14 nM | CCSc1cc(-c2cc(NCCc3c(C)sc4c(C)cccc34)ncn2)ccc1C(=O)O [Example 42, 4-{6-[2-(2,7-Dimethyl-benzo[b]thiophen-3-yl)-ethylamino]-pyrimidin-4-yl}-2-ethylsulfanyl-benzoic acid] |
| 9 nM | CSc1cc(-c2cc(NCCc3c(C)sc4c(C)cc(F)cc34)ncn2)ccc1C(=O)O [Example 17, 4-{6-[2-(5-Fluoro-2,7-dimethyl-benzo[b]thiophen-3-yl)-ethylamino]-pyrimidin-4-yl}-2-methylsulfanyl-benzoic acid] |
